According to patent US11084808B2, “Oxopicolinamide derivative, preparation method therefor and pharmaceutical use thereof” (Jiangsu Hengrui Medicine Co., Ltd., priority 2016, dated 2021):
One block for each compound: values may come before it.

Legend:
[1] = Pharmacokinetics assay in rats after intragastrical administration; format: in vivo, Sprague-Dawley (SD) rats; conditions: intragastric, 2 mg/kg
Excerpt: Test Example 3. Pharmacokinetics Assay of the Compounds of the Present Invention
Rats were used as test animals. […] The pharmacokinetic behavior of the compounds of the present invention was studied and evaluated in rats.
56 healthy adult Sprague-Dawley (SD) rats, half male and half female, were purchased from SINO-BRITSH SIPPR/BK LAB. ANIMAL LTD., CO, with License No.: SCXK (Shanghai) 2008-0016.
2.3 Preparation of the Test Compounds
A certain amount of the test compound was weighed, and added with 5% by volume of DMSO, 5% by volume of Tween 80 and 90% normal saline to prepare a 0.2 mg/mL colorless, clear and transparent solution.
After an overnight fast, SD rats were intragastrically administered at a dose of 2.0 mg/kg and an administration volume of 10.0 mL/kg.
Example 111, Example 114, Example 160. Example 171 and Comparative Example 1. Blood (0.2 mL) was taken from the orbital sinus before administration and at 0.5, 1.0, 2.0, 4.0, 6.0, 8.0, 11.0 and 24.0 hours after administration. […]
The content of the test compound in the plasma of rats after intragastric administration of different concentrations of the drug was determined: 25 μL of rat plasma at each time after administration was taken and added with 30 μL (100 ng/mL) of the internal standard solution of camptothecin and 200 μL of acetonitrile, shaken vertically for 5 minutes, and centrifuged for 10 minutes (4000 rpm). […]

[2] = test system: human blood; assay: In vitro anticoagulant effect on human blood (APTT, CT2); format: biochemical; conditions: for CT2 (compound concentration doubling APTT): human plasma
Method: Test Example 2: Determination of In Vitro Anticoagulant Effect of the Compounds of the Present Invention on Human Blood
1. Experimental Materials
Plasma: Human blood was collected in blood collection tubes containing no anticoagulant, and then 3.8% sodium citrate (volume ratio 1:9) was added. The tubes were centrifuged at 2500 rpm for 10 minutes at room temperature, and then the plasma was collected and stored at −80° C.:
Reagents: APTT reagent (Activated partial thromboplastin time assay kit, SIEMENS, Art. No. B4218-1), calcium chloride solution;
Instrument: Coagulation instrument (SYSMEX, CA-500).
The divided plasma was melted at room temperature and mixed well. 10000 μM the test compound dissolved in 100% DMSO was diluted to 3000, 300, 200, 150, 75, 30, 10, 3, 0.3 μM with 100% DMSO, and the blank was 100% DMSO. The reagent, plasma, and compound were placed in corresponding positions in the coagulation instrument, and APTT detection of the compound was carried out.
Curve fitting was carried out by graphpad and CT2 was calculated, i.e., the concentration of the compound corresponding to 2 times the APTT of the blank control.

[3] = Table 2, concentration of the compound corresponding to 2 times the APTT of the blank control
[4] = Table 3 comparison with similar compounds in the published patents

- AUC difference versus Comparative Example 1 [1]: 7.5 times
- Cmax difference versus Comparative Example 1 [1]: 6.9 times
SMILES: COc1cn([C@@H](Cc2cccnc2)C(=O)Nc2ccc(C(=O)O)cc2)c(=O)cc1-c1cc(Cl)ccc1C(C)=O [Example 84, (S)-4-(2-(4-(2-acetyl-5-chlorophenyl)-5-methoxy-2-oxopyridin-1(2H)-yl)-3-(pyridin-3-yl)propanamido)benzoic acid]

SMILES: [2H]C([2H])([2H])Oc1cn([C@H](CCOC(C)(C)C)C(=O)Nc2ccc(C(=O)O)cc2)c(=O)cc1-c1cc(Cl)ccc1C(=O)CC [Example 178, 4-[[(2R)-4-tert-butoxy-2-[4-(5-chloro-2-propionyl-phenyl)-2-oxo-5-(trideuteromethoxy)-1-pyridyl]butyryl]amino]benzoic acid]
- CT2 (compound concentration doubling APTT) [2, 3]: >10000 µM

SMILES: [2H]C([2H])([2H])C(=O)c1ccc(Cl)cc1-c1cc(=O)n([C@H](Cc2ccccc2)C(=O)Nc2ccc(C(=O)O)cc2)cc1OC [Example 184, 4-[[(2R)-2-[4-[5-chloro-2-(2,2,2-trideuteroacetyl)phenyl]-5-methoxy-2-oxo-1-pyridyl]-3-phenyl-propionyl]amino]benzoic acid]
- CT2 (compound concentration doubling APTT) [2, 3]: >10000 µM

SMILES: CCC(=O)c1ccc(Cl)cc1-c1cc(=O)n([C@@H](CCOC(C)(C)C)C(=O)Nc2ccc3nccnc3c2)cc1OC [Example 114, (S)-4-(tert-butoxy)-2-(4-(5-chloro-2-propionylphenyl)-5-methoxy-2-oxopyridin-1(2H)-yl)-N-(quinoxalin-6-yl)butanamide]
- CT2 (compound concentration doubling APTT) [2, 3]: 3.6 µM
- CT2 (compound concentration doubling APTT) [2, 4]: 2.9 µM
- CT2 value ratio of Example 114 and comparative Example 2 ([2]; from Table 3): 4.5 times

SMILES: COc1cn([C@@H](CCOC(C)(C)C)C(=O)Nc2ccc3nccnc3c2)c(=O)cc1-c1cc(Cl)ccc1-c1nc(C)no1 [Comparative Example 2, (S)-4-(tert-butoxy)-2-(4-(5-chloro-2-(3-methyl-1,2,4-oxadiazol-5-yl)phenyl)-5-methoxy-2-oxopyridin-1 (2H)-yl)-N-(quinoxalin-6-yl)butanamide, reference compound]
- CT2 (compound concentration doubling APTT) [2, 4]: 13.1 µM

SMILES: COCC[C@H](C(=O)Nc1ccc2[nH]c(C(=O)O)cc2c1)n1cc(OC)c(-c2cc(Cl)ccc2C(C)=O)cc1=O [Example 3, (R)-5-(2-(4-(2-acetyl-5-chlorophenyl)-5-methoxy-2-oxopyridin-1(2H)-yl)-4-methoxybutanamido)-1H-indole-2-carboxylic acid]
- CT2 (compound concentration doubling APTT) [2, 3]: >10000 µM

SMILES: COc1cn(C(Cc2ccn(C3CC3)n2)C(=O)Nc2ccc(C(=O)O)cc2)c(=O)cc1-c1cc(Cl)ccc1C(C)=O (centres unmarked) [Example 93, 4-(2-(4-(2-acetyl-5-chlorophenyl)-5-methoxy-2-oxopyridin-1(2H)-yl)-3-(1-cyclopropyl-1H-pyrazol-3-yl)propanamido)benzoic acid]
- CT2 (compound concentration doubling APTT) [2, 3]: 2.9 µM

SMILES: COc1cn([C@H](Cc2ccccn2)C(=O)Nc2ccc(C(=O)O)cc2)c(=O)cc1-c1cc(Cl)ccc1C(C)=O [Example 81, (R)-4-(2-(4-(2-acetyl-5-chlorophenyl)-5-methoxy-2-oxopyridin-1(2H)-yl)-3-(pyridin-2-yl)propanamido)benzoic acid]
- CT2 (compound concentration doubling APTT) [2, 3]: >10000 µM

SMILES: COCCC(C(=O)Nc1ccc2[nH]c(C(=O)O)cc2c1)n1cc(OC)c(-c2cc(Cl)ccc2C(C)=O)cc1=O (centres unmarked) [Example 1, 5-(2-(4-(2-acetyl-5-chlorophenyl)-5-methoxy-2-oxopyridin-1(2H)-yl)-4-methoxybutanamido)-1H-indole-2-carboxylic acid]
- CT2 (compound concentration doubling APTT) [2, 3]: 4.4 µM

SMILES: COc1cn([C@@H](Cc2ccccn2)C(=O)Nc2ccc(C(=O)O)cc2)c(=O)cc1-c1cc(Cl)ccc1C(C)=O [Example 80, (S)-4(2-(4-(2-acetyl-5-chlorophenyl)-5-methoxy-2-oxopyridin-1(2H)-yl)-3-(pyridin-2-yl)propanamido)benzoic acid]
- CT2 (compound concentration doubling APTT) [2, 3]: 7.9 µM

SMILES: [2H]C([2H])([2H])Oc1cn([C@@H](CCOC(C)(C)C)C(=O)Nc2ccc(C(=O)O)cc2)c(=O)cc1-c1cc(Cl)ccc1C(=O)CC [Example 177, 4-[[(2S)-4-tert-butoxy-2-[4-(5-chloro-2-propionyl-phenyl)-2-oxo-5-(trideuteromethoxy)-1-pyridyl]butyryl]amino]benzoic acid]
- CT2 (compound concentration doubling APTT) [2, 3]: 1.5 µM

SMILES: COc1cn([C@@H](Cc2ccccc2)C(=O)Nc2ccc(C(=O)O)cc2)c(=O)cc1-c1c(C(C)=O)ccc(Cl)c1F [Example 31, (S)-4-(2-(4-(6-acetyl-3-chloro-2-fluorophenyl)-5-methoxy-2-oxopyridin-1(2H)-yl)-3-phenylpropanamido)benzoic acid]
- CT2 (compound concentration doubling APTT) [2, 3]: 8.5 µM

SMILES: CCC(=O)c1ccc(Cl)cc1-c1cc(=O)n([C@@H](Cc2ccn(C3CC3)n2)C(=O)Nc2ccc(C(=O)O)cc2)cc1OC [Example 92, (S)-4-(2-(4-(5-chloro-2-propionylphenyl)-5-methoxy-2-oxopyridin-1(2H)-yl)-3-(1-cyclopropyl-1H-pyrazol-3-yl)propanamido)benzoic acid]
- CT2 (compound concentration doubling APTT) [2, 3]: 1.2 µM

SMILES: COc1cn(C(Cc2ccn(C)n2)C(=O)Nc2ccc(C(=O)O)cc2)c(=O)cc1-c1cc(Cl)ccc1C(C)=O (centres unmarked) [Example 100, 4-(2-(4-(2-acetyl-5-chlorophenyl)-5-methoxy-2-oxopyridin-(2H)-yl)-3-(1-methyl-1H-pyrazol-3-yl)propanamido)benzoic acid]
- CT2 (compound concentration doubling APTT) [2, 3]: 3.3 µM

SMILES: CCC(=O)c1ccc(Cl)cc1-c1cc(=O)n([C@@H](Cc2ccccc2)C(=O)Nc2ccc(C(=O)O)cc2)cc1OC [Example 9, (S)-4-(2-(4-(5-chloro-2-propionylphenyl)-5-methoxy-2-oxopyridin-1(2H)-yl)-3-phenylpropanamido)benzoic acid]
- CT2 (compound concentration doubling APTT) [2, 3]: 2.4 µM

SMILES: COc1cn([C@@H](Cc2ccccn2)C(=O)Nc2ccc(C(N)=O)cc2)c(=O)cc1-c1cc(Cl)ccc1C(C)=O [Example 85, (S)-4-(2-(4-(2-acetyl-5-chlorophenyl)-5-methoxy-2-oxopyridin-1(2H)-yl)-3-(pyridin-2-yl)propanamido)benzamide]
- CT2 (compound concentration doubling APTT) [2, 3]: 6.5 µM

SMILES: COc1cn([C@H](CCOC2CCC2)C(=O)Nc2ccc(C(=O)O)cc2)c(=O)cc1-c1cc(Cl)ccc1C(C)=O [Example 163, (R)-4-(2-(4-(2-acetyl-5-chlorophenyl)-5-methoxy-2-oxopyridin-1(2H)-yl)-4-cyclobutoxybutanamido)benzoic acid]
- CT2 (compound concentration doubling APTT) [2, 3]: >10000 µM

SMILES: CCNC(=O)c1ccc(NC(=O)[C@H](Cc2ccccc2)n2cc(OC)c(-c3cc(Cl)ccc3C(C)=O)cc2=O)cc1 [Example 37, (S)-4-(2-(4-(2-acetyl-5-chlorophenyl)-5-methoxy-2-oxopyridin-1(2H)-yl)-3-phenylpropanamido)-N-ethylbenzamide]
- CT2 (compound concentration doubling APTT) [2, 3]: 7.8 µM

SMILES: CCC(=O)c1ccc(Cl)cc1-c1cc(=O)n(C(Cc2ccn(C3CC3)n2)C(=O)Nc2ccc(C(=O)O)cc2)cc1OC (centres unmarked) [Example 91, 4-(2-(4-(5-chloro-2-propionylphenyl)-5-methoxy-2-oxopyridin-(2H)-yl)-3-(1-cyclopropyl-1H-pyrazol-3-yl)propanamido)benzoic acid]
- CT2 (compound concentration doubling APTT) [2, 3]: 2.1 µM

SMILES: COc1cn(C(Cc2ccn(C3CC3)n2)C(=O)Nc2ccc3nn(C)cc3c2)c(=O)cc1-c1cc(Cl)ccc1C(C)=O (centres unmarked) [Example 97, 2-(4-(2-acetyl-5-chlorophenyl)-5-methoxy-2-oxopyridin-(2H)-yl)-3-(1-cyclopropyl-1H-pyrazol-3-yl)-N-(2-methyl-2H-indazol-5-yl)propanamide]
- CT2 (compound concentration doubling APTT) [2, 3]: 5.4 µM
